This note sets out measurements from patent US12264134B2 (Merck Sharp & Dohme LLC, priority 2018, dated 2025).

A word on the IC50: it is the concentration needed to halve the response being measured.

The target of experiment [1] is T1, IDO1 (Homo sapiens, UniProt P14902). Description: IDO1 Cellular Assay in HeLa Cells Stimulated with IFNγ. Format: cell-based. The note with it: read-out: HeLa Cell Potency, IC50.
Experiment [2] addresses T1, IDO1. Briefly: IDO1 Human Whole blood Assay. Format: cell-based. Further details: Human whole blood was drawn in sodium heparin coated tubes from healthy internal donors; from tissue; host or cells: human whole blood from healthy donors, stimulated with LPS and IFNγ. The conditions noted are these: LPS and IFNγ stimulated, 18 h, read-out: Human Whole Blood Potency, IC50. In a few lines:
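LC/MS/MS of kynurenine, normalized to spiked isotope-labeled standard (3 μM final), served as the readout. Beforehand, fresh human blood with compound (15 min preincubation) was stimulated overnight (18 h, 37 °C) with 100 ng/mL LPS/IFNγ. IC50 was obtained by four-parameter curve fitting.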

T1 sequence (P14902 whole entry): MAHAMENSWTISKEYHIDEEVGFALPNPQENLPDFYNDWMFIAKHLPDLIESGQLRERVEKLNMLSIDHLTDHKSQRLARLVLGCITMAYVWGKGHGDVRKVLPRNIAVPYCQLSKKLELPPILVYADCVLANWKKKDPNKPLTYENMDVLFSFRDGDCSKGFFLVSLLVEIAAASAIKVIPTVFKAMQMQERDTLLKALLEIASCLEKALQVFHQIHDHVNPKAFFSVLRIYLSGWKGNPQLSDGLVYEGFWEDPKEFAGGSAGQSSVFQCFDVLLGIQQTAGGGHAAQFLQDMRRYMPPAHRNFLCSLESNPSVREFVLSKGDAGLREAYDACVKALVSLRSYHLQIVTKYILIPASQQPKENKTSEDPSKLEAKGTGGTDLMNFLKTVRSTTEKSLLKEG

With `Cc1cccc(N2CCN(C(=O)Cn3nc(C(=O)N4CCC(O)(CO)CC4)c4c3CCC4)CC2)c1C` [Example 141, 1-[4-(2,3-dimethylphenyl)piperazin-1-yl]-2-{3-[4-hydroxy-4-(hydroxymethyl)piperidine-1-carbonyl]-5,6-dihydrocyclopenta[c]pyrazol-1(4H)-yl}ethan-1-one], the IC50 at IDO1 [1] is 11.3 nM; at IDO1 [2], 360 nM.

On to `Cc1cccc(N2CCN(C(=O)Cn3nc(C(=O)N4C[C@@H](C)O[C@@H](C)C4)c4c3CCC4)C3(CC3)C2)c1C` [Example 391, 2-(3-((2S,6R)-2.6-dimethylmorpholine-4-carbonyl)-5,6-dihydrocyclopenta[c]pyrazol-1(4H)-yl)-1-(7-(2,3-dimethylphenyl)-4.7-diazaspiro[2.5]octan-4-yl)ethanone], for which the values for the IC50 on IDO1 [1] and at IDO1 [2] were 5 nM and 1000 nM, respectively.

With `Cc1cccc(N2CCN(C(=O)Cn3nc(C(=O)N4CCC(CO)CC4)c4c3CCC4)CC2)c1C` [Example 101, 1-[4-(2,3-dimethylphenyl)piperazin-1-yl]-2-{3-[4-(hydroxymethyl)piperidine-1-carbonyl]-5,6-dihydrocyclopenta[c]pyrazol-1(4H)-yl}ethan-1-one], the IC50 on IDO1 [1] turned out to be 6.12 nM; at IDO1 [2], 711 nM.

`Cc1c(F)ccc(N2CCN(C(=O)Cn3nc(C(=O)N4CC[C@@H](O)[C@@H](F)C4)c4c3CCCC4)CC2)c1C` [Example 462, 1-(4-(4-fluoro-2,3-dimethylphenyl)piperazin-1-yl)-2-(3-((3S,4R)-3-fluoro-4-hydroxy-piperidine-1-carbonyl)-4,5,6,7-tetrahydro-1H-indazol-1-yl)ethanone,]: the IC50 on IDO1 [1] worked out at 1.32 nM; on IDO1 [2] it was 103 nM.

For the compound `Cc1cccc(N2CCN(C(=O)Cn3nc(C(=O)N4CC[C@@H](C(C)(C)O)C4)c4c3C[C@H]3C[C@@H]43)CC2)c1C` [Example 230, 1-[4-(2,3-dimethylphenyl)piperazin-1-yl]-2-{(3bR,4aR)-3-[(3R)-3-(2-hydroxypropan-2-yl)pyrrolidine-1-carbonyl]-3b,4,4a,5-tetrahydro-1H-cyclopropa[3,4]cyclopenta[1,2-c]pyrazol-1-yl}ethan-1-one], the IC50 on IDO1 [1] was found to be 1.13 nM; on IDO1 [2], 801 nM.

For the compound `Cc1cccc(N2CCN(C(=O)Cn3nc(C(=O)N4CCC(O)CC4)c4c3C[C@H]3C[C@@H]43)[C@@H](C)C2)c1C` [Example 334, 1-[(2S)-4-(2,3-dimethylphenyl)-2-methylpiperazin-1-yl]-2-[(3bR,4aR)-3-(4-hydroxypiperidine-1-carbonyl)-3b,4,4a,5-tetrahydro-1H-cyclopropa[3,4]cyclopenta[1,2-c]pyrazol-1-yl]ethan-1-one], the half-inhibitory concentration (IC50) at IDO1 [1] was determined as 1.38 nM; at IDO1 [2], 4070 nM.

For `Cc1cccc(N2CCN(C(=O)Cn3nc(C(=O)N4CCC(O)CC4)c4c3CC(C(F)F)C4)CC2)c1C` (single isomer, unassigned) [Example 10, 2-[5-(difluoromethyl)-3-(4-hydroxypiperidine-1-carbonyl)-5,6-dihydro-5H-cyclopenta[c]pyrazol-1-yl]-1-[4-(2,3-dimethylphenyl)piperazin-1-yl]ethanone], the IC50 at IDO1 [1] amounted to 1.74 nM; on IDO1 [2], 233 nM.

With `Cc1c(Cl)cccc1N1CCN(C(=O)Cn2nc(C(=O)N3CCC(OCCO)CC3)c3c2CCC(F)C3)CC1` (single isomer, unassigned) [Example 373, 1-(4-(3-chloro-2-methylphenyl)piperazin-1-yl)-2-(5-fluoro-3-(4-(2-hydroxyethoxy)piperidine-1-carbonyl)-4,5,6,7-tetrahydro-1H-indazol-1-yl)ethan-1-one], the IC50 amounted to 3.78 nM at IDO1 [1] and 202 nM on IDO1 [2].

`CC(=O)NC1CCN(C(=O)c2nn(CC(=O)N3CCN(c4cccc(C)c4C)CC3)c3c2CCC3)CC1` [Example 128, N-[1-(1-{2-[4-(2,3-dimethylphenyl)piperazin-1-yl]-2-oxoethyl}-1,4,5,6-tetrahydrocyclopenta[c]pyrazole-3-carbonyl)piperidin-4-yl]acetamide]: the IC50 was 4.07 nM on IDO1 [1] and 192 nM at IDO1 [2].
